Test results: ChEMBL document CHEMBL6127020, “Discovery of aminopiperidine based potent & novel topoisomerase inhibitor with broad spectrum anti-bacterial activity” (Bioorg Med Chem Lett, 2024)
Converted amounts (≈) assume the structure as drawn.

Assays:
[1] = test system: Escherichia coli; assay: Antibacterial activity against Escherichia coli ATCC 25922 assessed as inhibition of bacterial growth; assay type: functional
[2] = test system: Staphylococcus aureus; assay: Antibacterial activity against Staphylococcus aureus ATCC 29213 assessed as inhibition of bacterial growth; assay type: functional

Row | MIC [1] | MIC [2] | SMILES
1 | > 16 µg/mL | > 16 µg/mL | N#Cc1ccc2ccc(=O)n(CCN3CCC(NCc4ccc5c(c4)NC(=O)CS5(=O)=O)CC3)c2c1
2 | 16 µg/mL (≈ 33.9 µM) | 8 µg/mL (≈ 17 µM) | CN1C(=O)COc2ccc(CNC3CCN(CCn4c(=O)ccc5ccc(C#N)cc54)CC3)cc21
3 | > 16 µg/mL | > 16 µg/mL | N#Cc1ccc2ccc(=O)n(CCN3CCC(NCc4ccc5c(c4)OCC(C(=O)O)O5)CC3)c2c1 (centres undefined)
4 | > 16 µg/mL | > 16 µg/mL | O=S1(=O)C=Cc2ccccc2N1CCN1CCC(NCc2cc3c(cn2)OCCC3)CC1
5 | 2 µg/mL (≈ 4.11 µM) | 0.125 µg/mL (≈ 0.257 µM) | O=c1ccc2ccc(C(F)(F)F)cc2n1CCN1CCC(NCc2cc3c(cn2)OCCC3)CC1
6 | > 16 µg/mL | > 16 µg/mL | O=S1(=O)c2ccccc2N(CCN2CCC(NCc3cc4c(cn3)OCCC4)CC2)c2ccccc21
7 | > 16 µg/mL | > 16 µg/mL | c1ccc2c(c1)c1ccccc1n2CCN1CCC(NCc2cc3c(cn2)OCCC3)CC1
